Laboratory results: US10377709B2, “Carboxamide derivatives and the use thereof as medicaments for the treatment of hepatitis B” (Janssen Sciences Ireland UC, priority 2013, dated 2019)

How the values were obtained:
[1] = system: HBV; assay: Anti-HBV activity in HepG2.2.15 stable transfected cell line (HBV DNA from secreted virions, realtime PCR); type: cell-based, Hepatitis B virus; conditions: HepG2.2.15 cells, 6 days of treatment, HBV DNA from secreted virions by realtime PCR
[2] = system: HBV; assay: Anti-HBV activity in HepG2.117 inducible HBV producing cell line (intracellular HBV DNA, realtime PCR); type: cell-based, Hepatitis B virus; conditions: HepG2.117 cells (Tet-off), 3 days of treatment, intracellular HBV DNA by realtime PCR
[3] = system: HepG2 cells; assay: Cytotoxicity in HepG2 cells (Resazurin assay); type: cell-based; conditions: incubated 4 days, viability by Resazurin assay
[4] = Cytotoxicity in HepG2 cells (Resazurin assay); type: cell-based; conditions: human, incubated 4 days, viability by Resazurin assay
[5] = Hepatitis B virus, HepG2.2.15, 144 h
[6] = Hepatitis B virus, HepG2.117, 72 h

Compound | EC50 [1] | EC50 [2] | CC50 [3] | EC50 [1, 5] | EC50 [2, 6] | CC50 at 4 days [4] | melting point
Cc1cc(NC(=O)C2CC(C)N(C(=O)C(=O)NC3(C)COC3)C2)ccc1F (single isomer, unassigned) [Compound 17b, N-(4-fluoro-3-methylphenyl)-5-methyl-1-(2-((3-methyloxetan-3-yl)amino)-2-oxoacetyl)pyrrolidine-3-carboxamide] | 0.918 µM | 0.796 µM | > 25 µM | – | – | – | –
Cc1cc(NC(=O)C2CC(C)N(C(=O)C(=O)NC3(C)COC3)C2)ccc1F (single isomer, unassigned) [Compound 17c, N-(4-fluoro-3-methylphenyl)-5-methyl-1-(2-((3-methyloxetan-3-yl)amino)-2-oxoacetyl)pyrrolidine-3-carboxamide] | > 1 µM | > 1 µM | > 25 µM | – | – | – | –
Cc1cc(NC(=O)C2CC(C)N(C(=O)C(=O)NC3(C)COC3)C2)ccc1F (single isomer, unassigned) [Compound 17d, N-(4-fluoro-3-methylphenyl)-5-methyl-1-(2-((3-methyloxetan-3-yl)amino)-2-oxoacetyl)pyrrolidine-3-carboxamide] | 0.07 µM | 0.032 µM | > 25 µM | – | – | – | –
CC(C)NC(=O)C(=O)N1CCC(C(=O)Nc2cc(F)c(F)c(Cl)c2)[C@@H]1C (single isomer, unassigned) [Compound 29b] | > 1 µM | > 1 µM | > 25 µM | – | – | – | –
CC1C(C(=O)Nc2ccc(F)c(Cl)c2F)CCCN1C(=O)C(=O)N[C@H](C)C(F)(F)F (single isomer, unassigned) [Compound 35b] | 0.195 µM | 0.483 µM | > 25 µM | – | – | – | –
CC1C(C(=O)Nc2ccc(F)c(Cl)c2F)CCCN1C(=O)C(=O)N[C@H](C)C(F)(F)F (single isomer, unassigned) [Compound 35c] | > 1 µM | > 1 µM | > 25 µM | – | – | – | –
CC1C(C(=O)Nc2ccc(F)c(Cl)c2F)CCCN1C(=O)C(=O)N[C@H](C)C(F)(F)F (single isomer, unassigned) [Compound 35d] | > 1 µM | > 1 µM | > 25 µM | – | – | – | –
CC(C)NC(=O)C(=O)N1CC[C@H](C(=O)Nc2ccc(F)c(C(F)(F)F)c2)C1 [Compound 23, (3S)-N-[4-fluoro-3-(trifluoromethyl)phenyl]-1-[2-(isopropylamino)-2-oxo-acetyl]pyrrolidine-3-carboxamide] | – | – | – | 0.38 µM | 0.575 µM | > 25 µM | –
CC[C@@H](C)NC(=O)C(=O)N1CC[C@H](C(=O)Nc2ccc(F)c(C(F)(F)F)c2)C1 [Compound 24, (3S)-N-[4-fluoro-3-(trifluoromethyl)phenyl]-1-[2-[[(1R)-1-methylpropyl]-amino]-2-oxo-acetyl]pyrrolidine-3-carboxamide] | – | – | – | 0.134 µM | 0.384 µM | > 25 µM | –
O=C(NC1(C(F)(F)F)CC1)C(=O)N1CC[C@H](C(=O)Nc2ccc(F)c(Cl)c2)C1 [Compound 25, (3S)-N-(3-chloro-4-fluoro-phenyl)-1-[2-oxo-2-[[1-(trifluoromethyl)cyclopropyl]amino]acetyl]pyrrolidine-3-carboxamide] | – | – | – | 0.042 µM | 0.031 µM | > 25 µM | –
C[C@H](NC(=O)C(=O)N1CC[C@H](C(=O)Nc2ccc(F)c(Cl)c2)C1)C(F)(F)F [Compound 26, (3S)-N-(3-chloro-4-fluoro-phenyl)-1-[2-oxo-2-[[(1S)-2,2,2-trifluoro-1-methyl-ethyl]amino]acetyl]pyrrolidine-3-carboxamide] | – | – | – | 0.168 µM | 0.122 µM | > 25 µM | –
CC(C)NC(=O)C(=O)N1CCC(C(=O)Nc2ccc(F)c(C#N)c2)[C@@H]1C (stereo partly drawn) [Compound 27, (2S)-N-(3-cyano-4-fluoro-phenyl)-1-[2-(isopropylamino)-2-oxo-acetyl]-2-methyl-pyrrolidine-3-carboxamide] | – | – | – | 0.119 µM | 0.126 µM | > 25 µM | –
CC(C)NC(=O)C(=O)N1CCC(C(=O)Nc2ccc(F)c(Cl)c2F)[C@@H]1C (stereo partly drawn) [Compound 28, (2S)-N-(3-chloro-2,4-difluoro-phenyl)-1-[2-(isopropylamino)-2-oxo-acetyl]-2-methyl-pyrrolidine-3-carboxamide] | – | – | – | 0.05 µM | 0.083 µM | > 25 µM | –
CC(C)NC(=O)C(=O)N1CCC(C(=O)Nc2cc(F)c(F)c(Cl)c2)[C@@H]1C (stereo partly drawn) [Compound 29, (2S)-N-(3-chloro-4,5-difluoro-phenyl)-1-[2-(isopropylamino)-2-oxo-acetyl]-2-methyl-pyrrolidine-3-carboxamide] | – | – | – | 0.018 µM | 0.048 µM | > 25 µM | –
C[C@H](NC(=O)C(=O)N1CC[C@H](C(=O)Nc2ccc(F)c(C(F)F)c2)C1)C(F)(F)F [Compound 30, (3S)-N-[3-(difluoromethyl)-4-fluoro-phenyl]-1-[2-oxo-2-[[(1 S)-2,2,2-trifluoro-1-methyl-ethyl]amino]acetyl]pyrrolidine-3-carboxamide] | – | – | – | 0.161 µM | 0.125 µM | > 25 µM | –
CC(C)NC(=O)C(=O)N1CC[C@H](C(=O)Nc2ccc(F)c(C(F)F)c2)C1 [Compound 31, (3S)-N-[3-(difluoromethyl)-4-fluoro-phenyl]-1-[2-(isopropylamino)-2-oxo-acetyl]pyrrolidine-3-carboxamide] | – | – | – | 0.134 µM | 0.143 µM | > 25 µM | –
C[C@@H](NC(=O)C(=O)N1CC[C@H](C(=O)Nc2cc(F)c(F)c(F)c2)C1)C(F)(F)F [Compound 32, (3S)-1-[2-oxo-2-[[(1R)-2,2,2-trifluoro-1-methyl-ethyl]amino]acetyl]-N-(3,4,5-trifluorophenyl)pyrrolidine-3-carboxamide] | – | – | – | – | 0.052 µM | > 25 µM | 197.3 °C
